Test results: patent US20040028753A1, “Inhalation of nitric oxide” (priority 2000, published 2004)

Tests used:
[1] = system: pigs with endotoxin-induced acute lung damage
Experimental: The Animal Research Ethics Committee of Uppsala University approved the study. Twentysix pigs of Swedish country breed, weighing 24-29 Kg, were used in the study. Before the transport from the farm, the pigs were sedated with a neuroleptic, azaperonum ([…], Janssen, Belgium), 40 mg intramuscularly (im). Anaesthesia was induced with atropine im (0.04 mg/Kg), tiletamin/zolazepam (ZOLETIL, Virbac Laboratories) (6 mg/Kg) and xylzry (ROMPUN, Bayer AG, Germany) (2.2 mg/Kg). After induction, a cannula was inserted in an ear vein and an opioid ([…], Antigen Pharmaceuticals Ltd, Roscrea, Ireland) (5 ug/Kg) was injected. Muscle relaxation was provided by pancuronium (PAVULON, Organon Technika AB, Göteborg, Sweden) ([…]). Anaesthesia was maintained with a continuous infusion of a hypnotic (chlomethiazole, HEMINEVRIN, Astra, Södertälje, Sweden) (400 mg/hour), pancuronium (2 mg/hour) and fentanyl (150 ug/hour) Repeated doses of fentanyl 0.2-0.5 mg i.v. were given as necessary. Depth of anaesthesia was considered to be adequate when skin incisions did riot cause any changes in heart rate or blood pressure. Pre-warmed (38° C.) isotonic saline 500 ml/hour was given for hydration. The animals were placed in the supine position (dorsal recumbency) for the remainder of the study.
A tracheotomy was performed after induction of anaesthesia and a cuffed tracheal tube (inner diameter 6 mm) was inserted. A volume-controlled ventilator (Siemens 900c) provided mechanical ventilation. Transducers built into the ventilator recorded airway pressure and minute ventilation. Respiratory frequency was maintained at 20 breaths per minute with tidal volume adjusted to maintain an end-tidal CO2 (PetCO2) between 36 and 41 mm Hg (4.8-5.4 kPa). The inspiratory time was 25%; an end-inspiratory pause 5% of the respiratory cycle was applied, as well as an end-expiratory pressure (PEEP) of 5-cm H2O. Inspired fraction of oxygen (FIO2) was 0.5.
A triple lumen balloon-tipped catheter (Swan Ganz no. 7F) was introduced via the right external jugular vein to the pulmonary artery for blood sampling and pressure recordings. […] The right carotid artery was cannulated for blood sampling and recording of arterial blood pressure.
The arterial, central venous and pulmonary artery catheters were connected to appropriate pressure transducers (Sorenson Transpac.Transducers, Abbott Critical Care Systems, Ill, USA) and pressures were recorded on a Marquette 7010 monitor (Marquette Electronics Inc., WI USA). Mean arterial pressure (MAP), mean pulmonary artery pressure (MPAP), heart rate (HR), central venous pressure (CVP), pulmonary capillary wedge pressure (PCWP) and cardiac output (Qt) were recorded. Airway pressures were registered from the ventilator. Vascular pressures were averaged over the whole respiratory cycle and the mid-thorax was used as the zero reference level.
Qt was measured.by means of thermodilution: 10 ml of ice cold isotonic saline were injected as a bolus and the Qt was computed (cardiac output computer Marquette 7010, Marquette Electronics Inc., WI, USA). At least three injections were given for each measurement and the mean was calculated. The injections were evenly distributed over the respiratory cycle. The expired minute volume was recorded at each measurement. Mixed venous and arterial blood samples were collected for blood gas analysis (ABL 3, Radiometer, Copenhagen, Denmark), oxygen saturation and hemoglobin concentration (OSM 3, Radiometer, Copenhagen, Denmark). Five-ml arterial blood were collected at the same time, the plasma was separated for biochemical analysis (see below).
Acute lung damage was induced by intravenous infusion of endotoxin 25 ug/kg/hour for 3 hours, and then maintained at 10 ug/kg/hour during the remaining experimental period.
Thirty minutes after surgery, baseline measurements of hemodynamics were made, blood samples were taken and blood was collected for subsequent biochemical analysis.

[2] = system: COX-1; experiment: COX-1 expression in lung tissue by Western blotting; type: in vivo, pig; conditions: 3 and 5 hour INO trial, no-block group
Experimental: (§1) The lung tissue blocks were rinsed by PBS at 4° C. The total protein of lung tissue was extracted by homogenization (Ultra-Turrax, Jenke and Kunkel, IKA Labortechnik, Staufen, Germany) in 5 volumes of ice-cold 0.05M Tris buffer (pH 7.4) containing 0.5 mM phenylmethyl-sulfonylfluoride to inhibit proteolysis. The supernatant was collected and stored at −80° C. until the analysis. The concentration of whole protein in the supernatant was determined by the method of Lowry. Then the protein was fractionated by sodium dodecyl sulfate-polyacrylamide gel electrophoresis, and electrophoretically transferred to a nitrocellulose membrane. The blot was blocked with 5% BSA in TBS overnight at 4° C. and then incubated with anti-COX-1 (1:2500, Cayman Chemical, MI, USA, Ca 160108), COX-2 (1:1500, Cayman Chemical, MI, USA, Ca 160108) in TBS containing 1% BSA over night at 4° C. […] The blot was washed 5 times in TBS, and the antigen-antibody complex was detected on photographic film, using enhanced chemiluminescence reagent (Amersham, Arlington Heights, Ill., USA). All the experiments were carried out three times, and the bands from each experiment were analyzed using the program of National Institutes of Health (NIH) Image 1.6 C for statistical analysis.

[3] = system: COX-2; experiment: COX-2 expression in lung tissue by Western blotting; type: in vivo, pig; conditions: no-block group
Experimental: as §1

[4] = system: TXB2; experiment: Plasma TXB2 concentration by enzyme immunoassay; type: in vivo, pig
Experimental: The injections were evenly distributed over the respiratory cycle. The expired minute volume was recorded at each measurement.
Blood was collected in pre-chilled tubes containing EDTA (10 mM, final concentration), centrifuged (10 min 40C). Measurements of TXB2 concentration were performed using a commercially available enzyme immunoassay (Thromboxane B2 EIA kit Cayman Chemical, MI, USA, Ca 519031). Serum was collected from each test tube and stored at −70° C. until TXB2 measurements were performed. To ensure that all samples were free of organic solvents, the serum was purified before its addition to the assay well. Purification of TXB2 was performed as the Cayman Chemical Introduction, by first adding 10,000 cpm of tritium-labeled TXB2 (3H-TXB2) to each sample, and then 2 ml ethanol, followed by votex 4° C. for 5 minutes, and centrifugation at 1500 g for 10 minutes to remove precipitated proteins. The supernatant was collected and mixed with ultra-pure water. The sample was passed through a C-18 reverse phase cartridge. Ten percent of the eluate was removed for scintillation counting.
Enzyme immunoassays were performed in duplicate by mixing 50 μl purified sample with 50 μl tracer and 50 μl antiserum on micro-plates. After 18 hours incubation, 200 μl Ellmans-Reagents was added to start the enzymatic reaction, and the absorption of individual vials was measured 30 minutes later at 405 nm using a photometry micro-plate reader (Thermo Max, Molecular Devices). Concentrations of TXB2 in the samples were estimated from standard curves obtained by nonlinear regression to absorption of eight known TXB2 concentrations ranging from 7.5 to 1000 pg/ml. The intra-assay and inter-assay coefficients of variation were <10%. For further details, see the TXB2 Enzyme immunoassay Kit 519031 Cayman Chemical manual.

[5] = inhalation of 30 ppm NO after 3 hours of endotoxin infusion (first trial)
[6] = second trial, after 4 hours of endotoxin infusion, 30 ppm NO
[7] = second trial, five minutes after discontinuation of NO inhalation

SMILES | effect of pretreatment on MPAP ([1]; Diclofenac in saline 300 mg/Kg iv bolus 30 minutes before NO inhalation, endotoxin infusion) | time to MPAP increase after discontinuation of NO inhalation ([1]; first trial) | PaO2 rebound on discontinuation of NO inhalation ([1]; first trial (3 hours of endotoxin infusion)) | decrease in MPAP [1, 5] | increase in PaO2 [1, 5] | increase in respiratory resistance during the endotoxin infusion ([1]; pig, in vivo) | MPAP response to NO inhalation in second trial compared with first trial one hour earlier [1, 6] | PaO2 response to NO inhalation in second trial compared with first trial one hour earlier [1, 6] | MPAP increase above the pre-NO level after discontinuation [1, 7] | PaO2 after discontinuation relative to pre-NO level [1, 7] | effect of inhalation or discontinuation on COX-1 expression [2] | effect of thirty minutes of INO on COX-2 expression ([3]; 3 and 5 hour inhalation test) | COX-2 expression after the INO periods [3] | plasma TXB2 level during NO inhalation ([4]; first INO trial) | plasma TXB2 after INO withdrawal ([4]; first INO trial, five minutes after withdrawal, p<0.05 in no-block group) | plasma TXB2 after second INO withdrawal ([4]; second INO trial)
O=C(O)Cc1ccccc1Nc1c(Cl)cccc1Cl [Diclofenac] | lowered MPAP | – | – | – | – | – | – | – | – | – | – | – | – | – | – | –
[N]=O [NO, nitric oxide] | – | ≤ 5 min | did not show a clear rebound phenomenon | 28% | 54% | did not prevent or attenuate the rise | weaker | weaker, and no longer significant | 26% | fallen to below the pre-NO level | did not affect | had no effect | remained increased | did not change | increased | further increase
